“Also recorded” adds a separate entry of the source.
Experiments:
[1] = test system: M2-10B4 (M2) marrow stromal cells; details: cited from earlier work
[2] = test system: C3H10T1/2 embryonic fibroblasts; details: cited from earlier work
[3] = test system: rat spines; assay: rat two-level spine model, implants in the posterolateral space, radiographs and manual palpation; assay type: in vivo; details: 4-week and 8-week time points
Method: FIG. 6 illustrates uses of a formulation of malleable implants having 20 mg of Oxy133 on each side of the implant, in accordance with the malleable implants described herein. […] A dry composition of a matrix containing Oxy133, collagen and ceramic as described herein was prepared and wetted with sterile water to be implanted in rat spines as shown in FIG. 6. The wetted matrix was cut in half with a razor blade to yield two halves. The two implants were molded into cylindrical shapes prior to insertion and were positioned bilaterally in the posterolateral space of each test subject. Each implant contained 20 mg Oxy133. Radiographs were taken roughly 10 minutes after the procedure, 4 weeks after the procedure, and 8 weeks after the procedure. […] Fusion was tested at 8-week sacrifice by manual palpation. […] A dry composition of a matrix containing Oxy133, collagen and ceramic as described herein was prepared and wetted with sterile water to be implanted in rat spines as shown in FIG. 6. The wetted matrix was cut in half with a razor blade to yield two halves. The two implants were molded into cylindrical shapes prior to insertion and were positioned bilaterally in the posterolateral space of each test subject. Each implant contained 125 mg Oxy133. Radiographs were taken roughly 10 minutes after the procedure, 4 weeks after the procedure, and 8 weeks after the procedure. […]

[4] = solubility of Oxy133 in water; assay type: physicochemical
Description: The Oxy133 can be solubilized in a non-aqueous solvent, such as for example, ethanol and mixed into a solution or suspension. In some embodiments, the Oxy133 can be filtered by passing the Oxy133 and solvent through a filter (e.g., 0.22 microns). This will remove bacteria and other larger-size particulates out of the composition. The Oxy133 used in the composition can be micronized before it is mixed with solvents and other excipients. In various embodiments, the particle size of the Oxy133 can range from about 1 micron to 250 microns. In some embodiments, the Oxy133 can have a particle size of from about 5 microns to about 100 microns or from about 20 to 50 microns. The Oxy133 in the solution or suspension can be added to a slurry of biodegradable polymer and/or the ceramic particles, mixed and, then dried.

[5] = test system: Mesenchymal stem cells; assay: osteoblast differentiation of mesenchymal stem cells treated with Oxy133; assay type: cell-based
Description: Thus, in some embodiments, a matrix comprising Oxy133 may be implanted into a spinal site with mesenchymal stem cells to induce bone growth through osteoblast differentiation. Periosteum tissue is one tissue type that is involved early during normal bone fracture repair process and can recruit various cell types (e.g., mesenchymal stem cells) and bone growth factors necessary for bone fracture repair. Thus, in some embodiments, periosteum tissue is utilized as a source of mesenchymal stem cells and/or growth factors in a demineralized bone composition.

Row | SMILES | osteogenic differentiation [1] | osteogenic differentiation [2] | bridging bone across the transverse processes of L3-L5 (radiographs) ([3]; each implant 20 mg Oxy133) | bridging bone across the transverse processes of L3-L5 (radiographs) ([3]; each implant 125 mg Oxy133) | solubility in water [4] | osteoblast differentiation [5]
1 | CC(C)CCC[C@](C)(O)[C@H]1CC[C@H]2[C@@H]3CC=C4C[C@@H](O)CC[C@]4(C)[C@H]3CC[C@@]21C [20(S)-hydroxycholesterol] | induce osteogenic differentiation | induce osteogenic differentiation | – | – | – | –
2 | CC(C)CC[C@@H](O)[C@@H](C)[C@H]1CC[C@H]2[C@@H]3CC=C4C[C@@H](O)CC[C@]4(C)[C@H]3CC[C@]12C [22(R)-hydroxycholesterol] | induce osteogenic differentiation | induce osteogenic differentiation | – | – | – | –
3 | CC(C)CC[C@H](O)[C@@H](C)[C@H]1CC[C@H]2[C@@H]3CC=C4C[C@@H](O)CC[C@]4(C)[C@H]3CC[C@]12C [22(S)-, 22(S)-hydroxycholesterol] | induce osteogenic differentiation | induce osteogenic differentiation | – | – | – | –
4 | CCCCCC[C@](C)(O)[C@H]1CC[C@H]2[C@@H]3C[C@H](O)[C@H]4C[C@@H](O)CC[C@]4(C)[C@H]3CC[C@@]21C [Oxy133, (3S,5S,6S,8R,9S,10R, 13S, 14S,17S) 17-((S)-2-hydroxyoctan-2-yl)-10,13-dimethylhexadecahydro-1H-cyclopenta[a]phenanthrene-3,6-diol] | – | – | Bone growth in rat test subjects can be seen; also recorded: promoted bridging bone | promoted bridging bone; also recorded: Bone growth in rat test subjects can be seen | only slightly soluble or insoluble | increased osteoblast differentiation
